Patent US9790196B2, “Lysine demethylase inhibitors for diseases and disorders associated with Flaviviridae” (Oryzon Genomics, S.A., priority 2010, dated 2017)
Like-named read-outs stand apart in the source and are kept apart here.

Experiments:
[1] = test system: Huh7 ET (luc-ubi-neo/ET) cells; assay: in vitro; conditions: read-out: Cytotoxicity IC50; 72 hr
Description: (§1) The effect of drug added in triplicate at concentrations of from e.g., 0 to 100 uM using half log dilutions on HCV RNA-derived LUC activity and cytotoxicity. Human interferon alpha-2b is included in each run as a positive control compound. Subconfluent cultures of the ET line are plated out into 96-well plates that are dedicated for the analysis of cell numbers (cytotoxicity) or antiviral activity and the next day drugs are added to the appropriate wells. Cells are processed 72 hr later when the cells are still subconfluent. Compound cytotoxicity is assessed as the percent viable cells relative to the untreated cell controls.

in vitro = conditions: human, Cytotoxicity IC50, 72 hr
Description: as §1

PK studies (Cmax) = assay type: in vivo, mice; conditions: at the MTD study doses
Description: (§2) Maximum tolerated dose studies and pharmacokinetics for several LSD1 inhibitors were assessed to determine if the compounds can be administered to mammals safely at doses that are expected to achieve therapeutic effects. In particular, Compound X was given to mice IP at 20 mg/kg, 40 mg/kg and 60 mg/kg daily for 5 days in a MTD study conducted at Leitat.

[2] = test system: HCV RNA replicon in Huh7 ET (luc-ubi-neo/ET) cells; assay: microbe, parasite or virus in culture; assay type: cell-based
Description: Anti-HCV assays were conducted at Southern Research Organization using an HCV RNA replicon with a luciferase reporter.
Southern Research reports that they use cell line Huh7 ET (luc-ubi-neo/ET) containing a HCV RNA replicon with a luciferase (LUC) reporter. […] This composition of the replicon is shown as follows
The HCV RNA replicon ET contains the 5′ NTR (IRES) of HCV (5′) which drives the production of a firefly luciferase (Luc), ubiquitin (Ubiq), and neomycin phosphotransferase (Neo) fusion protein. Ubiquitin cleavage releases the LUC and Neo genes. The EMCV IRES element (E-I) controls the translation of the HCV […] proteins NS3-NS5 and is located between Neo and NS3. The NS3 protein cleaves the HCV polyprotein to release the mature NS3, NS4A, NS4B, NS5A and NS5B proteins that are required for HCV replication. At the 3′ end of the replicon is the authentic 3′ NTR of HCV. The LUC reporter is used as an indirect measure of HCV replication. The activity of the LUC reporter is directly proportional to HCV RNA levels and positive control antiviral compounds behave comparably using either LUC or RNA endpoints.
as §1

[3] = Maximum tolerated dose study; assay type: in vivo; conditions: mice, IP, 20, 40 and 60 mg/kg daily for 5 days
Description: as §2

[4] = test system: H3K4 methylation in SH-SY5Y cells; assay: Western blot for dimethylated H3K4 in SH-SY5Y cells; assay type: cell-based
Excerpt: […]. B-actin was used as a loading control.

Structure (SMILES) | IC50 [1] [µM] | IC50 (in vitro) [µM] | Cmax (PK studies (Cmax)) | EC50 ([2]; HCV RNA-derived LUC activity, 72 hr, read-out: Antiviral Activity EC50) [µM] | EC50 ([2]; Hepatitis C virus, Huh7 ET, 72 h, HCV RNA-derived LUC activity, 72 hr, read-out: Antiviral Activity EC50) [µM] | EC50 ([2]; Hepatitis C virus, Huh7 ET, read-out: anti-HCV activity in HCV RNA replication assay) [µM] | tolerability in MTD study [3] | potency at increasing global dimethylated H3K4 levels as compared to tranylcypromine [4] [fold]
NC1CC1c1ccc(-c2cccc(O)c2)cc1 (centres unmarked) [Compound X] | 50.6 | 54.8 | expected to result in therapeutic levels | < 0.32 | 0.49 | 0.3 to 0.5 | tolerated with acceptable toxicity | –
NC(=O)CNC1CC1c1ccc(OCc2ccccc2)cc1 (centres unmarked) [Dual-1] | – | – | – | – | – | – | – | ≥ 10
